Data from patent US8987314B2, “Amide, urea or sulfone amide linked benzothiazole inhibitors of endothelial lipase” (Bristol-Myers Squibb Company, priority 2012, dated 2015).
Where two headings read alike, the source gives them in different places.

Assays:
[1] = target: Endothelial lipase (EL) (Homo sapiens (Human), UniProt Q9Y5X9); test: EL assay: endothelial lipase activity with fluorescent substrate A10070 in DMPG vesicles; type: biochemical
Outline: (§1)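 Vesicles prepared: A10070 dried with DMPG, resuspended in HEPES pH 8.0/NaCl/EDTA, sonicated on ice. Enzyme incubated with compound 30 min at 37° C. Reaction started with 1:10 diluted vesicles. Fluorescence (490/530 nm) followed 60 min; slope from 300–900 secs gives rate.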

[2] = target: hepatic lipase (HL) (Homo sapiens (Human), UniProt P11150); test: HL assay: hepatic lipase activity with fluorescent substrate A10070 in DMPG vesicles; type: biochemical
Outline: as §1

[3] = EL from conditioned media of HT-1080 cells, 30 min incubation with compound at 37° C., A10070/DMPG vesicles
[4] = HL partially purified from conditioned media of COS cells, 30 min incubation with compound at 37° C., A10070/DMPG vesicles

Sequence of hepatic lipase (HL) (P11150 23-499, species assumed): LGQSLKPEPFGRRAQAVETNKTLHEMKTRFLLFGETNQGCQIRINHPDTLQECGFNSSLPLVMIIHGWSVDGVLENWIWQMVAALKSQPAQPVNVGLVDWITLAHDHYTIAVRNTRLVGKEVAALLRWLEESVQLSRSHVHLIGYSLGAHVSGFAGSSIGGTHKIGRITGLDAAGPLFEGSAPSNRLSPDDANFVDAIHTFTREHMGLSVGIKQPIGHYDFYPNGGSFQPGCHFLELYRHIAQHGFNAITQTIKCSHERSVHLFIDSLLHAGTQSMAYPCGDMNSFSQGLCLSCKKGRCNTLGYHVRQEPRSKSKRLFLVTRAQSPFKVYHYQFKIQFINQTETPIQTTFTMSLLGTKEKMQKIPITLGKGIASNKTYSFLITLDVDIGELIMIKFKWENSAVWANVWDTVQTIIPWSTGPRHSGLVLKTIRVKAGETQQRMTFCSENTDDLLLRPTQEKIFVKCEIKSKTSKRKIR
Sequence of Endothelial lipase (EL) (Q9Y5X9 21-500): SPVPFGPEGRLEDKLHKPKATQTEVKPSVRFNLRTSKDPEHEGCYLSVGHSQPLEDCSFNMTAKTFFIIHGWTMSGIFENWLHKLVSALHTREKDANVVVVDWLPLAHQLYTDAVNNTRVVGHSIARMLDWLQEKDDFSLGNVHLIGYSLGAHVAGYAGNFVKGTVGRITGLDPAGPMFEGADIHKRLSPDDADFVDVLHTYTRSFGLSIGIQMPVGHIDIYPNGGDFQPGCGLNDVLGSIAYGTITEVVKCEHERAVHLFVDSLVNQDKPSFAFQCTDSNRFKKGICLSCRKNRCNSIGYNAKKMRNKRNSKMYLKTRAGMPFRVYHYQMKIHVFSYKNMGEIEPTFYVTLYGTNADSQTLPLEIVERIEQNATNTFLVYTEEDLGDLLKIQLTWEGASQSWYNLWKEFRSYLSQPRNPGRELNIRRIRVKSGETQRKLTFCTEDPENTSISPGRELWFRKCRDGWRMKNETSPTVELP

SMILES | IC50 [1] [nM] | IC50 [2] [nM] | IC50 [1, 3] [nM] | IC50 [2, 4] [nM]
COCCn1ccc(-c2ccc3nc(C(C(=O)NCCS(N)(=O)=O)S(=O)(=O)Cc4ccc(C(F)(F)F)cc4)sc3c2)cc1=O (stereo not shown) [Example B367, 2-{6-[1-(2-methoxyethyl)-2-oxo-1,2-dihydropyridin-4-yl]-1,3-benzothiazol-2-yl}-N-(2-sulfamoylethyl)-2-{[4-(trifluoromethyl)phen-yl]methanesulfonyl}a-cetamide] | 13.5 | 2210 |  | 
Cn1ccc(-c2ccc3nc(C(C(=O)NCCS(N)(=O)=O)S(=O)(=O)Cc4ccc(OC(F)(F)F)cc4)sc3c2)cc1=O (stereo not shown) [Example B368, 2-[6-(1-methyl-2-oxo-1,2-dihydropyridin-4-yl)-1,3-benzothiazol-2-yl]-N-(2-sulfamoylethyl)-2-{[4-(trifluoromethoxy)phen-yl]methanesulfonyl}a-cetamide] | 15.8 | 1600 |  | 
CS(=O)(=O)C(C(=O)NCCS(N)(=O)=O)c1nc2cc(-c3ccnc(F)c3)ccc2s1 (stereo not shown) [Example B369, 2-[5-(2-fluoropyridin-4-yl)-1,3-benzothiazol-2-yl]-2-methanesulfonyl-N-(2-sulfamoylethyl)acetamide] | 1.5 | 414 |  | 
COCCOc1ccc(-c2ccc3sc(C(C(=O)NCCS(N)(=O)=O)S(C)(=O)=O)nc3c2)cc1 (stereo not shown) [Example B370, 2-methanesulfonyl-2-{5-[4-(2-methoxyethoxy)phen-yl]-1,3-benzothiazol-2-yl}-N-(2-sulfamoylethyl)a-cetamide] | 1.8 | 15.5 |  | 
CC(=O)Nc1ccc(-c2ccc3sc(C(C(=O)NCCS(N)(=O)=O)S(C)(=O)=O)nc3c2)cc1 (stereo not shown) [Example B371, 2-[5-(4-acetamidophenyl)-1,3-benzothiazol-2-yl]-2-methanesulfonyl-N-(2-sulfamoylethyl)acetamide] | 3 | 96.3 |  | 
CS(=O)(=O)C(C(=O)NCCS(N)(=O)=O)c1nc2cc(-c3ccc(F)nc3)ccc2s1 (stereo not shown) [Example B372, 2-[5-(6-fluoropyridin-3-yl)-1,3-benzothiazol-2-yl]-2-methanesulfonyl-N-(2-sulfamoylethyl)acetamide] | 2.5 | 124 |  | 
CS(=O)(=O)C(C(=O)NCCS(N)(=O)=O)c1nc2cc(-c3cnoc3)ccc2s1 (stereo not shown) [Example B373, 2-methanesulfonyl-2-[5-(1,2-oxazol-4-yl)-1,3-benzothiazol-2-yl]-N-(2-sulfamoylethyl)acetamide] | 3.3 | 45.7 |  | 
CS(=O)(=O)C(C(=O)NCCS(N)(=O)=O)c1nc2cc(-c3ncccn3)ccc2s1 (stereo not shown) [Example B374, 2-methanesulfonyl-2-[5-(pyrimidin-2-yl)-1,3-benzothiazol-2-yl]-N-(2-sulfamoylethyl)acetamide] | 0.8 | 23.7 |  | 
NS(=O)(=O)CCNC(=O)C(c1nc2ccc(-c3ccnc(O)c3F)cc2s1)S(=O)(=O)CCC(F)(F)F (stereo not shown) [Example B375, 2-[6-(3-fluoro-2-hydroxy-pyridin-4-yl)-1,3-benzothiazol-2-yl]-N-(2-sulfamoylethyl)-2-(3,3,3-trifluoropropanesulfonyl)a-cetamide] | 14 | 787 |  | 
COCc1ccc(-c2ccc3sc(C(C(=O)NCCS(N)(=O)=O)S(C)(=O)=O)nc3c2)cc1 (stereo not shown) [Example B378, 2-methanesulfonyl-2-{5-[4-(methoxymethyl)phen-yl]-1,3-benzothiazol-2-yl}-N-(2-sulfamoylethyl)acetamide] | 0.7 | 6.7 |  | 
CC(=O)Nc1cccc(-c2ccc3sc(C(C(=O)NCCS(N)(=O)=O)S(C)(=O)=O)nc3c2)c1 (stereo not shown) [Example B379, 2-[5-(3-acetamidophenyl)-1,3-benzothiazol-2-yl]-2-methanesulfonyl-N-(2-sulfamoylethyl)acetamide] | 0.5 | 83.7 |  | 
CS(=O)(=O)C(C(=O)NCCS(N)(=O)=O)c1nc2cc(-c3cccc(F)n3)ccc2s1 (stereo not shown) [Example B380, 2-[5-(6-fluoropyridin-2-yl)-1,3-benzothiazol-2-yl]-2-methanesulfonyl-N-(2-sulfamoylethyl)acetamide] | 2 | 18.5 |  | 
CS(=O)(=O)C(C(=O)NCCS(N)(=O)=O)c1nc2cc(-c3ccncc3F)ccc2s1 (stereo not shown) [Example B381, 2-[5-(3-fluoropyridin-4-yl)-1,3-benzothiazol-2-yl]-2-methanesulfonyl-N-(2-sulfamoylethyl)acetamide] | 1.1 | 40.2 |  | 
CC(C)(C)OC(=O)N1CC=C(c2ccc3sc(C(C(=O)NCCS(N)(=O)=O)S(C)(=O)=O)nc3c2)CC1 (stereo not shown) [Example B382, tert-butyl 4-(2-{methanesulfonyl[(2-sulfa-moylethyl)carbamoyl]meth-yl}-1,3-benzothiazol-5-yl)-1,2,3,6-tetrahydropyridine-1-carboxylate] | 3.1 | 36.5 |  | 
CS(=O)(=O)C(C(=O)NCCS(N)(=O)=O)c1nc2cc(-c3cccnc3F)ccc2s1 (stereo not shown) [Example B383, 2-[5-(2-fluoropyridin-3-yl)-1,3-benzothiazol-2-yl]-2-methanesulfonyl-N-(2-sulfamoylethyl)acetamide] | 0.7 | 13 |  | 
Cn1nccc1-c1ccc2sc(C(C(=O)NCCS(N)(=O)=O)S(C)(=O)=O)nc2c1 (stereo not shown) [Example B384, 2-methanesulfonyl-2-[5-(1-methyl-1H-pyrazol-5-yl)-1,3-benzothiazol-2-yl]-N-(2-sulfamoylethyl)a-cetamide] | 8.2 | 828 |  | 
CS(=O)(=O)C(C(=O)NCCS(N)(=O)=O)c1nc2cc(-c3ccc(F)nc3F)ccc2s1 (stereo not shown) [Example B385, 2-[5-(2,6-difluoropyridin-3-yl)-1,3-benzothiazol-2-yl]-2-methanesulfonyl-N-(2-sulfamoylethyl)a-cetamide] | 3.5 | 20.5 |  | 
CC(C)(C)OC(=O)c1ccc(-c2ccc3nc(C(C(=O)N[C@@H]4CCNC4=O)S(=O)(=O)Cc4ccccc4)sc3c2)cc1 (stereo partly drawn) [Example B386, tert-butyl 4-[2-({[(3R)-2-oxopyrrolidin-3-yl]carbamoyl}(phenyl-methanesulfonyl)methyl)-1,3-benzothiazol-6-yl]benzoate] | 17.1 | 14.3 |  | 
CC(C)(O)Cn1ccc(-c2ccc3sc(C(C(=O)NCCS(N)(=O)=O)S(C)(=O)=O)nc3c2)cc1=O (stereo not shown) [Example B389, 2-{5-[1-(2-hydroxy-2-methylpropyl)-2-oxo-1,2-dihydropyridin-4-yl]-1,3-benzothiazol-2-yl}-2-methanesulfonyl-N-(2-sulfamoylethyl)acetamide] | 2 | 6300 |  | 
CC(C)(O)Cn1cc(-c2ccc3sc(C(C(=O)NCCS(N)(=O)=O)S(C)(=O)=O)nc3c2)ccc1=O (stereo not shown) [Example B390, 2-{5-[1-(2-hydroxy-2-methylpropyl)-6-oxo-1,6-dihydropyridin-3-yl]-1,3-benzothiazol-2-yl}-2-methanesulfonyl-N-(2-sulfamoylethyl)acetamide] | 3.5 | 10000 |  | 
CC(C)(C)OC(=O)c1ccc2sc(C(C(=O)NCCS(N)(=O)=O)S(C)(=O)=O)nc2c1 (stereo not shown) [Example B391, tert-Butyl 2-(1-(methylsulfonyl)-2-oxo-2-((2-sulfamoylethyl)amino)ethyl)-1,3-benzothiazole-5-carboxylate] |  |  | 25 | 53.4
CS(=O)(=O)C(C(=O)NCCS(N)(=O)=O)c1nc2cc(C(=O)O)ccc2s1 (stereo not shown) [Example B392, 2-(1-(Methylsulfonyl)-2-oxo-2-((2-sulfamoylethyl)amino)ethyl)benzo[d]thiazole-5-carboxylic acid] |  |  | 3.1 | 92.7
CS(=O)(=O)C(C(=O)NCCS(N)(=O)=O)c1nc2cc(C(=O)N3CC(F)(F)C3)ccc2s1 (stereo not shown) [Example B393, 2-[5-(3,3-difluoroazetidine-1-carbonyl)-1,3-benzothiazol-2-yl]-2-methanesulfonyl-N-(2-sulfamoylethyl)acetamide] | 50.3 | 5750 |  | 
CS(=O)(=O)C(C(=O)NCCS(N)(=O)=O)c1nc2cc(C(=O)NCCc3ccc(F)cc3)ccc2s1 (stereo not shown) [Example B394, N-[2-(4-fluorophenyl)ethyl]-2-{methanesulfonyl[(2-sulfa-moylethyl)carbamoyl]meth-yl}-1,3-benzothiazole-5-carboxamide] | 37.4 | 1600 |  | 
CS(=O)(=O)C(C(=O)NCCS(N)(=O)=O)c1nc2ccc(-c3nnc(-c4ccc(F)cc4)o3)cc2s1 (stereo not shown) [Example B395, 2-(6-(5-(4-Fluorophenyl)-1,3,4-oxadiazol-2-yl)benzo[d]thiazol-2-yl)-2-(methylsulfonyl)-N-(2-sulfamoylethyl)acetamide] |  |  | 148 | 275
CCNC(=O)CNC(=O)C(c1nc2ccc(-c3ccc(F)nc3)cc2s1)S(=O)(=O)CCOC (stereo not shown) [Example B397, N-[(ethylcarbamoyl)methyl]-2-[6-(6-fluoropyridin-3-yl)-1,3-benzothiazol-2-yl]-2-(2-methoxyethanesulfonyl)acetamide] |  |  | 109 | 460
